Experimental data: article PMC12300041, “Tricyclic Isatin Derivatives as Anti-Inflammatory Compounds with High Kinase Binding Affinity” (Molecules, 2025)
Where two headings read alike, the source gives them in different places.

Experiments:
[1] = system: NF-κB/AP-1 transcriptional activity; assay: LPS-induced NF-κB/AP-1 reporter (secreted alkaline phosphatase) in THP-1Blue cells; format: cell-based, human; details: 250 ng/mL LPS, N.A.: not active at the highest tested concentration (50 μM), read-out: AP Production (THP-1 Cells) IC50
Method: Human THP-1Blue monocytic cells stably transfected with a secreted embryonic alkaline phosphatase gene that is under control of a NF-κB/AP-1-inducible promoter were obtained from InvivoGen (San Diego, CA, USA). These cells were cultured in RPMI 1640 medium (Mediatech Inc., Herndon, VA, USA) containing 10% (v/v) fetal bovine serum (FBS), 100 μg/mL streptomycin, 100 U/mL penicillin, 100 μg/mL phleomycin (Zeocin), and 10 μg/mL blasticidin S (all from Sigma-Aldrich, St. Louis, MO, USA).
After incubation of THP-1Blue cells (2 × 10^5 cells/well) with test compounds or control DMSO (1% final concentration) for 30 min, 250 ng/mL of lipopolysaccharide (LPS; from Escherichia coli strain 0111:B4) was added, and the cells were incubated for 24 h. Secreted alkaline phosphatase activity was assessed in the cell supernatants using the QUANTI-Blue mix (InvivoGen; absorbance at 655 nm) and compared with positive controls treated with LPS alone. Compound concentrations that inhibited 50% of the NF-κB reporter activity (IC50) were determined.

[2] = target: T1, DAPK1 (Homo sapiens, UniProt P53355); assay: KINOMEscan; format: binding; details: for Kd: DAPK1, N.B.: no binding at concentrations up to 30 µM
T1 construct: purchased Eurofins Pharma Discovery (KINOMEscan)
Method: (§1) Kinase profiling was performed by KINOMEscan (Eurofins Pharma Discovery, San Diego, CA, USA), using a panel of 423 protein kinases, as described previously. Compounds were submitted for dissociation constant (Kd) determination toward several target kinases using KINOMEscan. […] Binding reactions were performed at room temperature for 1 h, and the fraction of kinase not bound to the test compound was determined by capture with an immobilized affinity ligand and quantified by quantitative polymerase chain reaction. The primary screening at fixed concentrations of the compound was performed in duplicate. For dissociation constant Kd determination, a 12-point half-log dilution series (a maximum concentration of 33 μM) was used.

[3] = target: T2, DAPK2 (Homo sapiens, UniProt Q9UIK4); assay: KINOMEscan; format: binding; details: for Kd: DAPK2, N.B.: no binding at concentrations up to 30 µM
T2 construct: purchased Eurofins Pharma Discovery (KINOMEscan)
Method: as §1

[4] = target: T3, DAPK3 (Homo sapiens, UniProt O43293); assay: KINOMEscan; format: binding; details: for Kd: DAPK3, N.B.: no binding at concentrations up to 30 µM
T3 construct: purchased Eurofins Pharma Discovery (KINOMEscan)
Method: as §1

[5] = target: T4, DYRK1A (Homo sapiens, UniProt Q13627); assay: KINOMEscan; format: binding; details: for Kd: DYRK1A, N.B.: no binding at concentrations up to 30 µM
T4 construct: purchased Eurofins Pharma Discovery (KINOMEscan)
Method: as §1

[6] = target: T5, DYRK1B (Homo sapiens, UniProt Q9Y463); assay: KINOMEscan; format: binding
T5 construct: purchased Eurofins Pharma Discovery (KINOMEscan)
Method: as §1

[7] = target: T6, HASPIN (Homo sapiens, UniProt Q8TF76); assay: KINOMEscan; format: binding; details: for Kd: Haspin, N.B.: no binding at concentrations up to 30 µM
T6 construct: purchased Eurofins Pharma Discovery (KINOMEscan)
T6 sequence (Q8TF76 1-798): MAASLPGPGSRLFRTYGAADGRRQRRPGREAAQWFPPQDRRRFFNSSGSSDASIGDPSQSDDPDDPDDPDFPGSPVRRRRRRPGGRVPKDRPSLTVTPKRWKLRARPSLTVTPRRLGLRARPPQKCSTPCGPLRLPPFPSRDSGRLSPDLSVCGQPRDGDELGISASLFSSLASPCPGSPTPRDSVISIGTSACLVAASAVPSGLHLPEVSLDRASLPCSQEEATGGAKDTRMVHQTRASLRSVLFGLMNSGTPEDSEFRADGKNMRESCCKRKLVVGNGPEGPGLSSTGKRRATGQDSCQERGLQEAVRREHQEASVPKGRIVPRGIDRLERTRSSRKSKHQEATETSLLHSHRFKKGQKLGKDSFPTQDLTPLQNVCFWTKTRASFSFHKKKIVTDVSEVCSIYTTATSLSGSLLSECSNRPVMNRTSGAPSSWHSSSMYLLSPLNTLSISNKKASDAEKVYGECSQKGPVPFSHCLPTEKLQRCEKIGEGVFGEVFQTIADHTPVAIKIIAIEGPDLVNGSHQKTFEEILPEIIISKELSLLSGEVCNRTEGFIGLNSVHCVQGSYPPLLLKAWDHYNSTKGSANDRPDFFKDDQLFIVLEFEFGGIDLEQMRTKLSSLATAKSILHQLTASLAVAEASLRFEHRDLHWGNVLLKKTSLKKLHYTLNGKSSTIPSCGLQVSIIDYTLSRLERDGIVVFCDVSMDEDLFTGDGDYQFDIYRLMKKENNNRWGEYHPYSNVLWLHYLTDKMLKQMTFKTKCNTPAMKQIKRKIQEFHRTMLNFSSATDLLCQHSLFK
Method: as §1

[8] = target: T7, HIPK1 (Homo sapiens, UniProt Q86Z02); assay: KINOMEscan; format: binding; details: for Kd: HIPK1, N.B.: no binding at concentrations up to 30 µM
T7 construct: purchased Eurofins Pharma Discovery (KINOMEscan)
Method: as §1

[9] = target: T8, HIPK2 (Homo sapiens, UniProt Q9H2X6); assay: KINOMEscan; format: binding; details: for Kd: HIPK2, N.B.: no binding at concentrations up to 30 µM
T8 construct: purchased Eurofins Pharma Discovery (KINOMEscan)
Method: as §1

[10] = target: T9, HIPK3 (Homo sapiens, UniProt Q9H422); assay: KINOMEscan; format: binding; details: for Kd: HIPK3, N.B.: no binding at concentrations up to 30 µM
T9 construct: purchased Eurofins Pharma Discovery (KINOMEscan)
Method: as §1

[11] = target: T10, IRAK1 (Homo sapiens, UniProt P51617); assay: KINOMEscan; format: binding
T10 construct: purchased Eurofins Pharma Discovery (KINOMEscan)
Method: as §1

[12] = DYRK1B, N.B.: no binding at concentrations up to 30 µM
[13] = IRAK1, N.B.: no binding at concentrations up to 30 µM

T8 sequence (Q9H2X6 whole entry): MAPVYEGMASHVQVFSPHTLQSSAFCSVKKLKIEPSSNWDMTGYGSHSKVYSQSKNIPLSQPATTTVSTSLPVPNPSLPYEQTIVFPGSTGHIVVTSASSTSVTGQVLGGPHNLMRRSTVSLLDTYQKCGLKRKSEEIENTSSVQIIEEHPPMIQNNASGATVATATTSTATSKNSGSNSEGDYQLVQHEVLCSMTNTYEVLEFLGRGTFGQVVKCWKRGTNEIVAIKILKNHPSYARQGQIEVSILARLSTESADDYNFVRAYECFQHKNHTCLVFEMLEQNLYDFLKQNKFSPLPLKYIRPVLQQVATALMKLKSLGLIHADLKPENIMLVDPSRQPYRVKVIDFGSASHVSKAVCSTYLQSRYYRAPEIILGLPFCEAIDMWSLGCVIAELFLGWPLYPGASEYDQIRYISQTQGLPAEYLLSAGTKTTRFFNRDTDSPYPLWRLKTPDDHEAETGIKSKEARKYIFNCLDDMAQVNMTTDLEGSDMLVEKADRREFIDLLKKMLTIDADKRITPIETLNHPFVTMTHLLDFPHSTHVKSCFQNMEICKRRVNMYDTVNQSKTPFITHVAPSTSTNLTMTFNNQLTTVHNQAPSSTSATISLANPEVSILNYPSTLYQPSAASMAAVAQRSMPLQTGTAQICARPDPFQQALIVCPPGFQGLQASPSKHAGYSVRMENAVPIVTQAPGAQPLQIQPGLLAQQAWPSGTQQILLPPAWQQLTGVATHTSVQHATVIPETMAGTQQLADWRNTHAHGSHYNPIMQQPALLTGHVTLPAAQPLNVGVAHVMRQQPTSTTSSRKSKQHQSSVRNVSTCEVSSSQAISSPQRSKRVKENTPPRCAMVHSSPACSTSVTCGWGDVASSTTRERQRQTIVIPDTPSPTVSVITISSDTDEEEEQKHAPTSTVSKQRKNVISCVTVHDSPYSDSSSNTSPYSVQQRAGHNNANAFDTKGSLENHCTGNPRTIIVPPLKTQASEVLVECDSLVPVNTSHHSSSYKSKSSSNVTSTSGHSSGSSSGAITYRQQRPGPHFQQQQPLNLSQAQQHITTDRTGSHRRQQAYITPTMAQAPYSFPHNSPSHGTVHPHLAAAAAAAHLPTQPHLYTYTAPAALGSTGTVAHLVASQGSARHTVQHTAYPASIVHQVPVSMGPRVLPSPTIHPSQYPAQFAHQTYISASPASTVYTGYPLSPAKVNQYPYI
T3 sequence (O43293 whole entry): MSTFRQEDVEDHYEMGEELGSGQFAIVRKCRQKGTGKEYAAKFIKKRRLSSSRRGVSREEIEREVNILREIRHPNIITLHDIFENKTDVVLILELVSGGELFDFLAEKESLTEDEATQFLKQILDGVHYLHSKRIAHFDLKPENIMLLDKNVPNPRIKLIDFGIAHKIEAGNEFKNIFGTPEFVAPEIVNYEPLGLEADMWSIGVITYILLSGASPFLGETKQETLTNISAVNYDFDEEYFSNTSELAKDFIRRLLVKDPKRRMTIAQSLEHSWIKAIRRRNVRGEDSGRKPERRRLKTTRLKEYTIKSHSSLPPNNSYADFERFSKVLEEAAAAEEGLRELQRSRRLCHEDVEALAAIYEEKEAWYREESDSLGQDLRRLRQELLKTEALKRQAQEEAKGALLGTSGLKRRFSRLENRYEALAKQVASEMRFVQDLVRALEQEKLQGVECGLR
T1 sequence (P53355 whole entry): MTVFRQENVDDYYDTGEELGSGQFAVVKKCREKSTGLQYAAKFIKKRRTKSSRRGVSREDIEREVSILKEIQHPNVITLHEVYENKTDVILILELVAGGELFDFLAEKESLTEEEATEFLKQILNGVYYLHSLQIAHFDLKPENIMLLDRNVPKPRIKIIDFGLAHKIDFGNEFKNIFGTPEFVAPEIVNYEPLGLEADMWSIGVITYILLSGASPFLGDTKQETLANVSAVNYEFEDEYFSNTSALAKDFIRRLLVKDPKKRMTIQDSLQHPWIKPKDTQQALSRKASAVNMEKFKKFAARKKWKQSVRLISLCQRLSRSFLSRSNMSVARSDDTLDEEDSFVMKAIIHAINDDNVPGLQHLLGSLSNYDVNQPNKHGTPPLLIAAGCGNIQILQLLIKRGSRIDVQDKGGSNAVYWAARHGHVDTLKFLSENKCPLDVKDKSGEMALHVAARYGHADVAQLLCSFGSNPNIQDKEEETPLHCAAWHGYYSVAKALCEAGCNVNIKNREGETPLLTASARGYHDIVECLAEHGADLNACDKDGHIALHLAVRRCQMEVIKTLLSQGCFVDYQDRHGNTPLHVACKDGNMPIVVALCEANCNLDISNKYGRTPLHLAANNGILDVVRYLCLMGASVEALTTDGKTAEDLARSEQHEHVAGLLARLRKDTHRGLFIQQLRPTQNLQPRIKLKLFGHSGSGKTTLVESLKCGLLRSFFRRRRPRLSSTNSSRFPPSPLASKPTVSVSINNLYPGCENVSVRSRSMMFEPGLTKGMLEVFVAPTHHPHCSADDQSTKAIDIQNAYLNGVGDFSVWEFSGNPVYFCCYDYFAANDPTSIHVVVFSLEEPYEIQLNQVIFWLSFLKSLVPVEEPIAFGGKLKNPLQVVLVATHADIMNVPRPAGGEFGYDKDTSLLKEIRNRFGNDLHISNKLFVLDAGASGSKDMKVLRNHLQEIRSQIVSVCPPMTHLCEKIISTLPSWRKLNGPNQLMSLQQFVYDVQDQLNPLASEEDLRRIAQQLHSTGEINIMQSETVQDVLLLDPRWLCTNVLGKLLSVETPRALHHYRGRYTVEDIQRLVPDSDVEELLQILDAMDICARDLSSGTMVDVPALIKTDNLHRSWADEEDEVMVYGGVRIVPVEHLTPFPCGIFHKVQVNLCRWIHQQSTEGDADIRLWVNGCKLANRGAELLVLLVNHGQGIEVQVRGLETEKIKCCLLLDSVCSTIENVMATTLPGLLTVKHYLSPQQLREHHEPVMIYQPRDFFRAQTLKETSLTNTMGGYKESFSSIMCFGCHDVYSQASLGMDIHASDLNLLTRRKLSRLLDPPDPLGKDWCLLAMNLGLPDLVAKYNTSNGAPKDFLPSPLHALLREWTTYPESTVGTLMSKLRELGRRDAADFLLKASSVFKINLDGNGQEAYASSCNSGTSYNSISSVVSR
T5 sequence (Q9Y463 whole entry): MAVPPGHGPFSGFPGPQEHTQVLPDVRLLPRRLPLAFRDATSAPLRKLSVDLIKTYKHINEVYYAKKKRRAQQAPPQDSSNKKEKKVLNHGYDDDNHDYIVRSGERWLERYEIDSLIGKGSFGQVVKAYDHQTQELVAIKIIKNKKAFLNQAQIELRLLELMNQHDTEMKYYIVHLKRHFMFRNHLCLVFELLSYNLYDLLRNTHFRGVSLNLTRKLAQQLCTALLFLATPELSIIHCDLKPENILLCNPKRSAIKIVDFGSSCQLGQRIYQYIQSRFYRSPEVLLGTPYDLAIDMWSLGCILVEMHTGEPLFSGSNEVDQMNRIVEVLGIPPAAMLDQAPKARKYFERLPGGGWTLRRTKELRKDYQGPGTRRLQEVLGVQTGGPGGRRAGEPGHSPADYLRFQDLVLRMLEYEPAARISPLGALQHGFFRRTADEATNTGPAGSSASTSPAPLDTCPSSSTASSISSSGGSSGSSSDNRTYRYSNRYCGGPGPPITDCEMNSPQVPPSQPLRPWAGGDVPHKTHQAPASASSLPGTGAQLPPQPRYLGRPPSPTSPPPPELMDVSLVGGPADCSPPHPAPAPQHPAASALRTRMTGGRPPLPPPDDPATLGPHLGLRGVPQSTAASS
T10 sequence (P51617 whole entry): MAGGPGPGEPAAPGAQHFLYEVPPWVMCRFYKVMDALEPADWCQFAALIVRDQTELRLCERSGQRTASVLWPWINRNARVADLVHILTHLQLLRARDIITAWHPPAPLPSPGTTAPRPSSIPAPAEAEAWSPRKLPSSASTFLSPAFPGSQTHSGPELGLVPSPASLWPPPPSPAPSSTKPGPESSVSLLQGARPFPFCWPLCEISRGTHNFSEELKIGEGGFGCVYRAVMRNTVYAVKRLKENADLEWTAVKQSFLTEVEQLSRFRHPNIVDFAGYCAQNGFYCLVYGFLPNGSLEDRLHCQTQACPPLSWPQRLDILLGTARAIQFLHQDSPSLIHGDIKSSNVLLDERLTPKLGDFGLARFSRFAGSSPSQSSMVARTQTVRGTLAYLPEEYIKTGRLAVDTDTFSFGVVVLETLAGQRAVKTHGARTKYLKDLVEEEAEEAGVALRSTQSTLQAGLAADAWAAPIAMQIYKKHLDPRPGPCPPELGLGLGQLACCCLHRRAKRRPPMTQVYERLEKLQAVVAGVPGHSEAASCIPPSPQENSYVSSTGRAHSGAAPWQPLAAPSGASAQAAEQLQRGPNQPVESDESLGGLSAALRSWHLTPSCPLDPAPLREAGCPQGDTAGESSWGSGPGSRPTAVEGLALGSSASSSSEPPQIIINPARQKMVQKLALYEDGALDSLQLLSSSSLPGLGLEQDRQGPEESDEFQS
T2 sequence (Q9UIK4 whole entry): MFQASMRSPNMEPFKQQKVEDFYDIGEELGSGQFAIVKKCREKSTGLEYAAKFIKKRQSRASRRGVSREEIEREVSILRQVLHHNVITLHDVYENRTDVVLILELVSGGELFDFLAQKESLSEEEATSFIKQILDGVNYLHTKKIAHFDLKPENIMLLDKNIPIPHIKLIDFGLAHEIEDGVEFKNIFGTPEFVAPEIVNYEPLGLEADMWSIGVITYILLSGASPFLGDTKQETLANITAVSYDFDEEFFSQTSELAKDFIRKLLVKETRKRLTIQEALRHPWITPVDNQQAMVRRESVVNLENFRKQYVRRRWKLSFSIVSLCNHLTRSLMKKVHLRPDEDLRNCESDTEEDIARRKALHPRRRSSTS

Row | Compound | IC50 ([1]; 24 h) [nM] | IC50 ([1]; Homo sapiens, THP-1, 24 h) [nM] | Kd [2] [nM] | Kd [3] [nM] | Kd [4] [nM] | Kd [5] [nM] | Kd [7] [nM] | Kd [8] [nM] | Kd [9] [nM] | Kd [10] [nM] | also measured
1 | O=C1Nc2c(ccc3c2CCCC3)C1=NO [Compound 5a, 3-(Hydroxyimino)-1,3,6,7,8,9-hexahydro-2H-benzo[g]indol-2-one] | 6000 ± 1300 | < 6100 | 13500 ± 700 | 7700 ± 1100 | 20500 ± 3500 | 850 ± 120 | 610 ± 80 | 1100 ± 70 | 730 ± 640 | 1300 ± 300 | Kd (µM) [6, 12]: N.B.; Kd (µM) [11, 13]: N.B.
2 | O=C1Nc2c(cc([N+](=O)[O-])c3c2CCCC3)C1=NO [Compound 5d, 3-(Hydroxyimino)-5-nitro-1,3,6,7,8,9-hexahydro-2H-benzo[g]indol-2-one] | 5500 ± 1400 | < 6100 | 290 ± 20 | 200 ± 42 | 590 ± 28 | 435 ± 78 | 165 ± 21 | 520 ± 113 | 295 ± 92 | 135 ± 70 | inhibition at 10 µM ([2]; 10 μM): 96.3%; inhibition at 10 µM ([3]; 10 μM): 98.9%; inhibition at 10 µM ([4]; 10 μM): 98.5%; inhibition at 10 µM ([5]; 10 μM): 98.8%; inhibition at 10 µM ([6]; 10 μM): 96.4%; Kd [6, 12]: 470 ± 20 nM; inhibition at 10 µM ([7]; 10 μM): 99.5%; inhibition at 10 µM ([8]; 10 μM): 98.5%; inhibition at 10 µM ([9]; 10 μM): 99.7%; inhibition at 10 µM ([10]; 10 μM): 100%; inhibition at 10 µM ([11]; 10 μM): 99.2%; Kd [11, 13]: 670 ± 113 nM
